Measured values as given in US12564589B2, “Methods for treating cancer, reducing side effects of cancer treatment, and preventing the recurrence of cancer” (Florida State University Research Foundation, Inc., priority 2024, dated 2026).

How the values were obtained:
[1] = test system: H3.3KD cells; test: Viability by flow cytometry (Live/Dead staining) after DNA damaging agents; assay type: cell-based, human
Method: FIGS. 1A-1G show replacement histone variant H3.3 is rapidly recruited to DNA damage sites and cells deficient in H3.3 accumulate endogenous damage, while also being hypersensitive to DNA damaging agents. FIG. 1A: Histone variant H3.3 is rapidly recruited to sites of laser induced DNA damage in living cells. HCT116 human colon carcinoma cells were transiently co-transfected with expression constructs for H3.3-mEmerald and RFP-PCNA. […] Percent recruitment was calculated by dividing the number of cells recruiting H3.3 by the number of cells recruiting PCNA in the same cells. n=number of cells analyzed. […] The percentage knockdown for each clone shown at the bottom of the lanes was quantitated by measuring fluorescence intensity of the H3.3 band relative to the signal from the H4 band on a Li-Cor Odyssey imager. […] The presence of endogenous damage in H3.3KD and control LUC cells was determined by Western blotting of whole cell extracts using the indicated antibodies. […] 48 hours after MMS treatment, the viability of the cells was scored by flow cytometry using the violet fluorescent Live/Dead cell staining kit (Invitrogen) following the manufacturer's instructions. […] Significant differences between treatments are indicated by p values determined using a t-test. […]

[2] = test system: Budding yeast strains carrying H3G34R mutant; test: Yeast viability by colony enumeration after genotoxic agents; assay type: cell-based; conditions: 90 minutes treatment
Method: FIGS. 8A-8G show deficiency of H3.3 in cells from multiple species results in accumulation of genomic instability and endogenous DNA damage, as well as hypersensitivity to DNA damaging agents. (FIG. 8A) Enhanced rate of micronuclei formation in H3.3KD cells. Micronuclei score was determined as described previously from 1000 LUC and H3.3KD cells. The difference between LUC and H3.3 was trending towards significance (p=0.12). (FIG. 8B) Increased incidence of lagging chromosomes during mitosis in H3.3KD cells. Quantitation of lagging chromosomes from 100 anaphases in LUC and H3.3KD cells is shown. (FIG. 8C) Flies deficient in H3.3 accumulate endogenous DNA damage. Western blot showing the levels of γH2A.v (the fly homolog of mammalian γH2A.X) in adult flies of the indicated genotypes: wild-type (WT; Oregon-R), heterozygous (het, with just one H3.3 allele) and rescue (res, which completely lacks H3.3, but its sterility is rescued by an extra copy of H3.2 driven by the H3.3B promoter). A sample from flies treated with 10 Gy IR is included as a positive control for γH2A.v signal. […] 100 third instar Drosophila larvae from WT and heterozygous (H3.3 Het) genotype carrying just one out of four alleles of H3.3 were exposed to either IR or ultra violet (UV) light and their development into adult flies was monitored for over two weeks. […] Viable flies remaining were scored daily for a week. […]

## COS(C)(=O)=O [MMS, methyl methane sulfonate]
[1]; 0.0175% MMS for 2 hours, viability 48 hours after
  sensitivity of H3.3 KD cells compared to control LUC cells: very sensitive
[2]
  sensitivity of H3G34R yeast compared to wild-type: hypersensitive

## NC(Cn1ccc(=O)c(O)c1)C(=O)O (stereo not drawn) [Mimosine]
[1]; 0.5 mM Mimo
  sensitivity of H3.3 KD cells compared to control LUC cells: very sensitive
